Among the data in ChEMBL document CHEMBL1269006, “Synthetic human serum albumin Sudlow I binding site mimics” (J Med Chem, 2010) are EC50 and logEC50 values, retold here.

The assay can be described thus: Displacement of [3H](S)-warfarin from methacrylic acid-ethylene dimethacrylate copolymer. (Displacement assays read how much labelled ligand stays bound in the presence of the test substance.)

Molecules are shown by their SMILES.

Usually EC50 stands for the midpoint of the concentration-response curve. Regarding `CC(=O)CC(c1ccc(Cl)cc1)c1c(O)c2ccccc2oc1=O` (stereo unspecified) [COUMACHLOR], a half-maximal response (EC50) required 165 µM and the logEC50 is -3.78.
`O=c1ccc2ccccc2o1` [COUMARIN] registered a concentration giving a half-maximal response (EC50) of 1290 µM and a logEC50 of -2.89.
For `CC(=O)CC(c1ccccc1)c1c(O)c2ccccc2oc1=O` (stereo unspecified) [WARFARIN], in that order: 89.6 µM and -4.05.
